Reference: US9409864B2, “Sulfonamide TRPA1 receptor antagonists” (ARIO PHARMA LIMITED, priority 2013, dated 2016)
Read-outs that look alike come from different tables or passages of the source.

Experiments:
[1] = target: T1, native human TRPA1 receptors (Homo sapiens, UniProt O75762); test: PF-4840154 (1 μM)-induced Ca2+ fluorescence measurements in A549 cell line; type: cell-based; settings: for inhibition at 10 µM: 10 μM compound against 1 μM PF-4840154, A549 cells
T1 construct: stably expressing native human TRPA1 receptors were used; endogenous in cells; host or cells: A549 human lung adenocarcinoma epithelial cell line
Method: PF-4840154 (1 μM)-Induced Ca^2+ Fluorescence Measurements in A549 Cell Line
Human lung adenocarcinoma epithelial cell line (A549) stably expressing native human TRPA1 receptors were used. The cells were cultured in medium consisting of Eagle's minimal essential medium (EMEM) supplemented with 10% fetal bovine serum (FBS), penicillin (100 IU/ml), streptomycin ([…]), L-glutamine (2 mM), sodium bicarbonate (2.5 g/L) and HEPES (24 mM). Cells were kept at 37° C. in 5% CO2/humidified air. For the experiments the cells were seeded at a density of 16,000 cells/well into 96-well black, clear-bottom plates. After 24 hours incubation the cells were loaded with medium supplemented with 2.5 mM probenecid, 3 μM of the calcium sensitive fluorescent dye Fluo-4 AM and 0.01% pluronic acid, for 30 min at 37° C. Afterwards the loading solution was aspirated and 100 μl/well of assay buffer: Hank's Balanced Salt Solution (HBSS) supplemented with 2.5 mM probenecid and 500 μM Brilliant Black (Aldrich) was added. Stock solutions (100 mM) of ligands were made in Dimethyl Sulfoxide (DMSO) and stored at −20° C. Serial dilutions of ligands for experimental use were made in HBSS buffer. After placing both plates (cell culture and compound plate) into the FlexStation II (Molecular Device, Union City, Calif. 94587, US), fluorescence changes were measured. On-line additions were carried out in a volume of […]. To facilitate drug diffusion into the wells in antagonist type experiments, the studies were performed at 36.5° C. and three cycles of mixing (25 μl from each well moved up and down 3 times) were performed immediately after antagonist injection to the wells. All exemplified compounds were tested alone (to address residual agonistic activity) and against 1 μM of PF-4840154 to address inhibitory activity at the initial concentration of 10 μM. For selected examples the entire inhibitory concentration-response curves were constructed and the IC50 value calculated.
PF-4840154 (1 μM) increased [Ca^2+] in the vast majority (95%) of cultured cells which were thereby identified as TRPA1 expressing cells.

[2] = test system: PF-4840154-induced mechanical hyperalgesia in rats; test: Agonist (PF-4840154)-induced mechanical hyperalgesia in rats; type: in vivo; settings: Rattus norvegicus, 30 μmol/kg oral, PF-4840154 0.05 nmol/50 μl/paw intraplantar
From the text: Agonist (PF-4840154)-Induced Mechanical Hyperalgesia in Rats
The method is used to investigate the anti-hyperalgesic effects of the compounds listed in the present invention following agonist (PF-4840154)-induced hyperalgesic responses. The activity is indicative of TRPA1 receptor occupancy following oral dosing. Specifically, male SD rats (Charles River, Italy) weighing 70-100 g. were used. The anti-hyperalgesic effects were investigated using the electronic dynamometer test. PF-4840154 (Sigma, USA) was used to induce mechanical hyperalgesia. Local, intraplantar injection of PF-4840154 at 0.05 nmol/50 μl/paw caused the reduction of the hind paw withdrawal response induced by mechanical stimuli. Mechanical stimulation was induced in basal condition and 30, 60, 120, 180 and 240 minutes after the oral administration of the antagonists dissolved in 2.5% DMSO and 30% Solutol. Compounds were orally administered (30 μmol/kg/10 ml) to rats 1 hour before the injection of PF-4840154 into the plantar surface of a rat's hind using a micro syringe.

[3] = test system: oxaliplatin-induced mechanical hyperalgesia in rats; test: Oxaliplatin-induced mechanical hyperalgesia in rats; type: in vivo; settings: Rattus norvegicus, 168 h, 30 μmol/kg oral, 7 days post i.v. oxaliplatin 2.5 mg/kg
Method: Oxaliplatin-Induced Mechanical Hyperalgesia in Rats
The method described by Nassini et al. (Pain, 2011, 152(7), 1621-31) was used with minor modifications. Restrained rats were treated with a single intravenous bolus injection of oxaliplatin (2.5 mg/kg) dissolved in normal saline. This approach was sufficient to elicit reproducible allodynic behaviour evident 3 days post injection and during the day thereafter. For convenience all acute experiments were conducted 7 days post injection when compounds were orally administered at 30 μmol/kg.

[4] = against PF-4840154 (1 μM)-evoked [Ca2+]i mobilization, A549 cells
[5] = read-out: % of reversal of mechanical allodynia
[6] = read-out: Maximal inhibition (%)

T1 sequence (O75762 whole entry): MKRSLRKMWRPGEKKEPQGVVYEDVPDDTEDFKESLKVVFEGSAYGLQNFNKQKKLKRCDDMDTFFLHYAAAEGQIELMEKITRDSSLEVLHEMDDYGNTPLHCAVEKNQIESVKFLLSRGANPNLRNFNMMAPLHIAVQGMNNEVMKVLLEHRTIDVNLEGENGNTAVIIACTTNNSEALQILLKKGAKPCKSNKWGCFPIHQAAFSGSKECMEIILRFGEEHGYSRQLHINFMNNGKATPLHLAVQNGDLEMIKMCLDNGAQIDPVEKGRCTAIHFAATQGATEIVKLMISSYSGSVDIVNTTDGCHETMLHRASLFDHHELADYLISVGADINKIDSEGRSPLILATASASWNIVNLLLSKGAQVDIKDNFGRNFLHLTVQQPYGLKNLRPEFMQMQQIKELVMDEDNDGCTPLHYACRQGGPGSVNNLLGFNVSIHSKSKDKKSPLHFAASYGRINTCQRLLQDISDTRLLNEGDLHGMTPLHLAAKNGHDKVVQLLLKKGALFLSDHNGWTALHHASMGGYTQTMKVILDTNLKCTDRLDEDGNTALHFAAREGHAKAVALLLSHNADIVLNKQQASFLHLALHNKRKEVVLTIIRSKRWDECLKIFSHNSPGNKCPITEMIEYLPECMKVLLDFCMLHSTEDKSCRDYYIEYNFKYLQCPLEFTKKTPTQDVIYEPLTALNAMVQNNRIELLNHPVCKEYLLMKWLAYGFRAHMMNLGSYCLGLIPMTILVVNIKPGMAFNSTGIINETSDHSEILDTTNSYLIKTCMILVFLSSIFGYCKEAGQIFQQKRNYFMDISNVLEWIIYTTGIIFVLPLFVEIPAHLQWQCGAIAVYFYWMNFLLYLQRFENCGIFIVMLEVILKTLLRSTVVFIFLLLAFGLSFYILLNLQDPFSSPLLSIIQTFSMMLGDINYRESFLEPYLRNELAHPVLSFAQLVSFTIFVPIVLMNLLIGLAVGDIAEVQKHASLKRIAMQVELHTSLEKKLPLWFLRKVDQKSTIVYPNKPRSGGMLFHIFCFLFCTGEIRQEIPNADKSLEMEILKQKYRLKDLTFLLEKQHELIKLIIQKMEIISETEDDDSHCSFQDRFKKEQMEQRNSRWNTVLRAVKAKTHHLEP

SMILES: C=C(C(=O)NCc1ccnc(-c2ccc(OC(F)(F)F)cc2)c1)N(C)S(=O)(=O)c1ccc(Cl)cc1 [Example 4, 2-[(4-chlorophenyl)sulfonyl-methyl-amino]-N-[[2-[4-(trifluoromethoxy)phenyl]-4-pyridyl]methyl]prop-2-enamide]
- inhibition at 10 µM [1]: 98%
- IC50 [1, 4]: 0.078 µM
- inhibition in vivo at 30 µmol/kg [2, 5]: 67%
- inhibition in vivo at 30 µmol/kg [2, 6]: 67%

SMILES: C=C(C(=O)NCc1ccnc(-c2ccc(OC(F)(F)F)cc2)c1)N(CC)S(=O)(=O)c1ccc(Cl)cc1 [Example 5, 2-[(4-chlorophenyl)sulfonyl-ethyl-amino]-N-[[2-[4-(trifluoromethoxy)phenyl]-4-pyridyl]methyl]prop-2-enamide]
- inhibition at 10 µM [1]: 99%
- IC50 [1, 4]: 0.1 µM
- inhibition in vivo at 30 µmol/kg [2, 5]: 76%
- inhibition in vivo at 30 µmol/kg [2, 6]: 76%

SMILES: CCN(C1(C(=O)NCc2ccnc(-c3ccc(OC(F)(F)F)cc3)c2)CC1)S(=O)(=O)c1ccc(F)cc1 [Example 26, 1-[ethyl-(4-fluorophenyl)sulfonyl-amino]-N-[[2-[4-(trifluoromethoxy)phenyl]-4-pyridyl]methyl]cyclopropanecarboxamide]
- inhibition at 10 µM [1]: 100%
- IC50 [1, 4]: 0.151 µM
- inhibition in vivo at 30 µmol/kg [2, 5]: 64%
- inhibition in vivo at 30 µmol/kg [2, 6]: 64%

SMILES: CCN(C1(C(=O)NCc2cccc(-c3ccc(C(F)(F)F)cc3)c2)CC1)S(=O)(=O)c1ccc(Cl)cc1 [Example 30, 1-[(4-chlorophenyl)sulfonyl-ethyl-amino]-N-[[3-[4-(trifluoromethyl)phenyl]phenyl]methyl]cyclopropanecarboxamide]
- inhibition at 10 µM [1]: 100%
- IC50 [1, 4]: 0.1 µM
- inhibition in vivo at 30 µmol/kg [2, 5]: 82%
- inhibition in vivo at 30 µmol/kg [2, 6]: 82%

SMILES: CCN(C1(C(=O)NCc2cc(-c3ccc(C(F)(F)F)cc3)nc(N3CCCC3)c2)CC1)S(=O)(=O)c1ccc(Cl)s1 [Example 34, 1-[(5-chloro-2-thienyl)sulfonyl-ethyl-amino]-N-[[2-pyrrolidin-1-yl-6-[4-(trifluoromethyl)phenyl]-4-pyridyl]methyl]cyclopropanecarboxamide]
- inhibition at 10 µM [1]: 100%
- IC50 [1, 4]: 0.025 µM
- inhibition in vivo at 30 µmol/kg [3, 5]: 71%
- inhibition in vivo at 30 µmol/kg [3, 6]: 71%

SMILES: C=C(C(=O)NCc1cc(-c2ccc(C(F)(F)F)cc2)nc(N(C)C)c1)N(CC)S(=O)(=O)c1ccc(F)cc1 [Example 37, N-[[2-dimethylamino-6-[4-(trifluoromethyl)phenyl]-4-pyridyl]methyl]-2-[ethyl-(4-fluorophenyl)sulfonyl-amino]prop-2-enamide]
- inhibition at 10 µM [1]: 100%
- IC50 [1, 4]: 0.018 µM
- inhibition in vivo at 30 µmol/kg [3, 5]: 82%
- inhibition in vivo at 30 µmol/kg [3, 6]: 82%
- inhibition in vivo at 30 µmol/kg [2, 5]: 95%
- inhibition in vivo at 30 µmol/kg [2, 6]: 95%

SMILES: C=C(C(=O)NCc1cc(OC)nc(-c2ccc(C(F)(F)F)cc2)c1)N(CC)S(=O)(=O)c1ccc(F)cc1 [Example 40, 2-[ethyl-(4-fluorophenyl)sulfonyl-amino]-N-[[2-methoxy-6-[4-(trifluoromethyl)phenyl]-4-pyridyl]methyl]prop-2-enamide]
- inhibition at 10 µM [1]: 100%
- IC50 [1, 4]: 0.016 µM
- inhibition in vivo at 30 µmol/kg [3, 5]: 103%
- inhibition in vivo at 30 µmol/kg [3, 6]: 103%

SMILES: CCN(C1(C(=O)NCc2cc(OC)nc(-c3ccc(C(F)(F)F)cc3)c2)CC1)S(=O)(=O)c1ccc(Cl)s1 [Example 50, 1-[(5-chloro-2-thienyl)sulfonyl-ethyl-amino]-N-[[2-methoxy-6-[4-(trifluoromethyl)phenyl]-4-pyridyl]methyl] cyclopropanecarboxamide]
- inhibition at 10 µM [1]: 100%
- IC50 [1, 4]: 0.019 µM
- inhibition in vivo at 30 µmol/kg [3, 5]: 82%
- inhibition in vivo at 30 µmol/kg [3, 6]: 82%
- inhibition in vivo at 30 µmol/kg [2, 5]: 76%
- inhibition in vivo at 30 µmol/kg [2, 6]: 76%

SMILES: CCN(C1(C(=O)NCc2cc(-c3ccc(C(F)(F)F)cc3)nc(N3CCCC3)c2)CC1)S(=O)(=O)c1ccc(F)cc1 [Example 51, 1-[ethyl-(4-fluorophenyl)sulfonyl-amino]-N-[[2-pyrrolidin-1-yl-6-[4-(trifluoromethyl)phenyl]-4-pyridyl]methyl]cyclopropanecarboxamide]
- inhibition at 10 µM [1]: 100%
- IC50 [1, 4]: 0.041 µM
- inhibition in vivo at 30 µmol/kg [3, 5]: 65%
- inhibition in vivo at 30 µmol/kg [3, 6]: 65%
- inhibition in vivo at 30 µmol/kg [2, 5]: 76%
- inhibition in vivo at 30 µmol/kg [2, 6]: 76%

SMILES: CCOc1cc(CNC(=O)C2(N(CC)S(=O)(=O)c3ccc(Cl)s3)CC2)cc(-c2ccc(C(F)(F)F)cc2)n1 [Example 53, 1-[(5-chloro-2-thienyl)sulfonyl-ethyl-amino]-N-[[2-ethoxy-6-[4-(trifluoromethyl)phenyl]-4-pyridyl]methyl] cyclopropanecarboxamide]
- inhibition at 10 µM [1]: 100%
- IC50 [1, 4]: 0.017 µM
- inhibition in vivo at 30 µmol/kg [3, 5]: 83%
- inhibition in vivo at 30 µmol/kg [3, 6]: 83%
- inhibition in vivo at 30 µmol/kg [2, 5]: 89%
- inhibition in vivo at 30 µmol/kg [2, 6]: 89%

SMILES: CCN(C1(C(=O)NCc2cccc(-c3ccc(C(F)(F)F)cc3)c2)CC1)S(=O)(=O)c1ccc(Cl)s1 [Example 59, 1-[(5-chloro-2-thienyl)sulfonyl-ethyl-amino]-N-[[3-[4-(trifluoromethyl)phenyl]phenyl]methyl]cyclopropanecarboxamide]
- inhibition at 10 µM [1]: 99%
- IC50 [1, 4]: 0.038 µM
- inhibition in vivo at 30 µmol/kg [3, 5]: 67%
- inhibition in vivo at 30 µmol/kg [3, 6]: 67%
- inhibition in vivo at 30 µmol/kg [2, 5]: 111%
- inhibition in vivo at 30 µmol/kg [2, 6]: 111%

SMILES: CCN(C1(C(=O)NCc2cc(-c3ccc(C(F)(F)F)cc3)nc(N3CCN(C4CCCCC4)CC3)c2)CC1)S(=O)(=O)c1ccc(F)cc1 [Example 66, N-[[2-(4-cyclohexylpiperazin-1-yl)-6-[4-(trifluoromethyl)phenyl]-4-pyridyl]methyl]-1-[ethyl-(4-fluorophenyl)sulfonyl-amino]cyclopropanecarboxamide]
- inhibition at 10 µM [1]: 93%
- IC50 ([1]; against PF-4840154 (1 μM), A549 cells, cells printed in μM): 1.5 µM

SMILES: CCN(C1(C(=O)NCc2cc(-c3ccc(C(F)(F)F)cc3)nc(N3CCN(C4CCCCC4)CC3)c2)CC1)S(=O)(=O)c1ccc(Cl)s1 [Example 67, 1-[(5-chloro-2-thienyl)sulfonyl-ethyl-amino]-N-[[2-(4-cyclohexylpiperazin-1-yl)-6-[4-(trifluoromethyl)phenyl]-4-pyridyl]methyl]cyclopropanecarboxamide]
- inhibition at 10 µM [1]: 95%
- IC50 [1, 4]: 0.59 µM

SMILES: CC(C)CNc1nc(N2CCN(CC3CCCOC3)CC2)ncc1C(=O)NCc1ccccc1 (centres unmarked) [PF-4840154, reference compound]
- cultured cells with increased [Ca2+] ([1]; PF-4840154 1 μM, A549 cells): 95%
